Measured values: patent publication US10422787B2, “System and method for single molecule detection” (ARIZONA BOARD OF REGENTS on behalf of ARIZONA STATE …, priority 2015, dated 2019)
[ ]: non-standard residue; d: D form.

How the values were obtained:
Assay type in all cases: binding
α4β1 = target: T1, α4β1 (Homo sapiens, UniProt P05556+P13612); test: STM break-junction, effect of electrode modification (ligand) on frequency of large current events
T1 construct: purchased R&D Systems (Bio-Techne)

αVβ3 integrin = αVβ3 integrin (Homo sapiens, UniProt P05106+P06756); test: Capture of αVβ3 integrin by cyclic RGD peptide in junction device
Source text: In experiments, the concentration used to obtain signals with the single molecule capture device had to be quite high (i.e., nanomolar or higher) in order for the probability of capturing a single molecule in a reasonable time to be significant. In some embodiments, this probability is proportional to the volume from which molecules can be captured in a reasonable time. For example, if the molecules diffuse freely with a diffusion constant D (e.g., about 10^−11 m^2/s), then the volume from which molecules can be collected in a time t, over a linear junction length L, is given approximately by πr^2L where r^2=Dt. Taking t=60 s and L=36 nm (approximately the length of the junction around the edge of a 12 nm diameter pore), about 40 molecules would be present at 1 nM concentration in the resulting volume of 6.5×10^−17 m^3 (=6.5×10^−14 liters). […] Thus, for a device with X=10 μm, the capture volume in 1 minute capture time becomes 10^−14 m^3 or almost 100× greater. In fact, upon the solution being flowed over the device, the effective capture length is orders of magnitude greater. […] Thus, if about a linear cm of fluid is flowed past a junction slowly enough that each volume of length equal to the junction length spends about a minute over the junction, then concentrations as small as a femtomole will yield a signal.

αvβ3 = target: T2, αvβ3 (Homo sapiens, UniProt P05106+P06756); test: STM break-junction, effect of electrode modification (ligand) on frequency of large current events
T2 construct: the αVβ3 extracelluar domain of human integrin; purchased YO Proteins AB
Source text: The molecular specificity of the αVβ3-RGD binding was investigated by comparing the selectivity of RGD functionalized surfaces with the selectivity of surfaces functionalized with cyclic RGE, a cyclic peptide of the same charge (RGD, pI=6.09; RGE pI=6.18) and differing by only one carbon atom. The effects of functionalizing only the probe or substrate were also investigated. The results of these experiments are summarized in Table 2 (no events were observed without functionalization). […] It can be concluded that one chemical contact is required for the high conductance to be observed, and that the specificity and frequency of events increases with the chemical specificity of the contact. In addition, specific binding results in larger current peaks at larger retraction distances than obtained with less-specific binding.
RGE is a cyclic peptide differing from RGD by only one carbon atom.
Functionalizing STM probes and substrates: The STM probes were etched from a 0.25 mm Pd wire (California Fine Wires) by an AC electrochemical etching method, and then insulated with high-density polyethylene, leaving an open apex of a few tens of nanometers in diameter. Before use, the probes were tested in 1 mM phosphate buffer (pH=7.4) at 0.5 V bias to ensure that the leakage current was <1 pA. For functionalization, the probe was gently cleaned using ethanol and water, respectively, and then dried with nitrogen flow. The probe was immersed in a 0.5 mg/mL peptide solution for ˜20 h. After that, the probe was taken out, rinsed with water, dried with nitrogen gas, and used immediately. Palladium substrates were prepared by depositing a 100 nm palladium film onto a 10 nm titanium adhesion layer coated onto a 750 μm thick silicon wafer using an electron-beam evaporator (Lesker PVD 75). The substrate was annealed with a hydrogen flame immediately before being functionalized by the same method as that for probe. Fourier transform infrared (FTIR) spectroscopy was used to characterize the functionalization. Pd substrates were also treated by UV- Ozone cleaner and H2 gas reduction (to remove PdO).
Preparation of RGD and RGE: RGD peptide, cyclo(Arg-Gly-Asp-D-Phe-Cys), was obtained from Peptides International (Louisville, Ky.). RGE peptide, cyclo(Arg-Gly-Glu-D-Phe-Cys), was synthesized by CPC Scientific (Sunnyvale, Calif.) with a purity>95%. For chip and STM tip functionalization, peptides were dissolved to a final concentration of 0.5 mg/mL in a freshly degassed 1 mM phosphate buffer (pH=7.4), which was prepared using water from a Milli-Q system with a resistance of ˜18 MΩ and a total organic carbon contamination below 4 ppb.
STM Measurements: Break junction measurements were carried out with a PicoSPM scanning probe microscope (Agilent Technologies). The Teflon liquid cells were cleaned in Piranha solution and then sonicated in Milli-Q water three times (Note that: the Piranha is highly corrosive and must be handled with extreme care). The current set point was 4 pA. Different sample bias was applied to the substrate as required. For better surface charge control, an Ag/AgCl with a salt bridge (10 mM KCl) was connected to the substrate. The tip was approached to the substrate with an integral and proportional gain of 1.0 and then left to stabilize for 0.5 h. For break junction measurements, the tip was first brought into the set point position. After 5 s of waiting, the tip was retracted 10 nm from the substrate with a speed of 0.17 nm/s, during which a current-distance trace was recorded. Subsequently, the tip was re-engaged and the retraction process repeated. About one hundred traces were collected for each experiment and at least three independent experiments were conducted for each sample (using a different substrate and tip each time).

T1 sequence (P13612 34-977 limits assumed): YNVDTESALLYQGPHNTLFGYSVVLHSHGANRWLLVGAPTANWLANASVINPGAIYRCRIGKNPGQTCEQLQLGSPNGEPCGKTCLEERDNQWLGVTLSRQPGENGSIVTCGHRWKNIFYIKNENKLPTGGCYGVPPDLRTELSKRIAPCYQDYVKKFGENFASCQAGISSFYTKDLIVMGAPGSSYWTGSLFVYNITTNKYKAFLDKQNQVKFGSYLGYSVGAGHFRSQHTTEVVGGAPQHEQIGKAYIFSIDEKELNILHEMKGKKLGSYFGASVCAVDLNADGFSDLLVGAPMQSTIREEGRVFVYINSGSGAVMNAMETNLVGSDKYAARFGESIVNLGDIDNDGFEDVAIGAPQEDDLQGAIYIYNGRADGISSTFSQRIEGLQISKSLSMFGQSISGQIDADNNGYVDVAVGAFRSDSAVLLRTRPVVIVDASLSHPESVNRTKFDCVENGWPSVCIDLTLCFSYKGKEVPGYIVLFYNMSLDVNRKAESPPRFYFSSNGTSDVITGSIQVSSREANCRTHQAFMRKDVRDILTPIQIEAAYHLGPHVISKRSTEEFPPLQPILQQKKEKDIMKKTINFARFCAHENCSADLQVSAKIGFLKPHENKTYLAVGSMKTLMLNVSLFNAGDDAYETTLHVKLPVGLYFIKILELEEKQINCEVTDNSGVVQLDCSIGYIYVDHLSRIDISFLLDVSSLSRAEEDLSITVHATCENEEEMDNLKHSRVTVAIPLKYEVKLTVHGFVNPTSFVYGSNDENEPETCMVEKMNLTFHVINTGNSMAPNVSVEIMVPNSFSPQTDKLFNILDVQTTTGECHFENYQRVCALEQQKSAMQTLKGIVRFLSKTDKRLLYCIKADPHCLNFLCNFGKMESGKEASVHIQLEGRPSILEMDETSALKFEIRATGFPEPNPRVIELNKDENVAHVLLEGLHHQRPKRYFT
T1 sequence (P05556 21-728 limits assumed): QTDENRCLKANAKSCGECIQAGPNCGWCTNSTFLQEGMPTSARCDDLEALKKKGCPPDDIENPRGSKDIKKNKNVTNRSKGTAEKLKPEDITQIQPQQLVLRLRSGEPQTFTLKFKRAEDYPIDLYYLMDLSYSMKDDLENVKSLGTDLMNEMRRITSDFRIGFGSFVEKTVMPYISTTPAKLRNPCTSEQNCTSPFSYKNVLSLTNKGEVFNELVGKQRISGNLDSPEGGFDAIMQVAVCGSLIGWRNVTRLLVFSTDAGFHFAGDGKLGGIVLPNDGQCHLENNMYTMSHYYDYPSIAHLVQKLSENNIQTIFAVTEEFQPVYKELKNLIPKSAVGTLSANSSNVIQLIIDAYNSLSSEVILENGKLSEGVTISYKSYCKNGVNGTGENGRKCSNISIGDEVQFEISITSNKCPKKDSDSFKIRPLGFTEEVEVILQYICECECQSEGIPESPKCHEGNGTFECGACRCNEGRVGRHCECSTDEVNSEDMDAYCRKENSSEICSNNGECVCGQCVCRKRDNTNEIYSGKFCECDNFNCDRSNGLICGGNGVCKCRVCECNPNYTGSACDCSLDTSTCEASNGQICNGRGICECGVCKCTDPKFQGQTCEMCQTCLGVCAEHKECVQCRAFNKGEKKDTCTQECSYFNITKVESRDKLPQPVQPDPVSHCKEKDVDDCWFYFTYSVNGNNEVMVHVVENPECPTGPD
T2 sequence (P06756 31-992 limits assumed): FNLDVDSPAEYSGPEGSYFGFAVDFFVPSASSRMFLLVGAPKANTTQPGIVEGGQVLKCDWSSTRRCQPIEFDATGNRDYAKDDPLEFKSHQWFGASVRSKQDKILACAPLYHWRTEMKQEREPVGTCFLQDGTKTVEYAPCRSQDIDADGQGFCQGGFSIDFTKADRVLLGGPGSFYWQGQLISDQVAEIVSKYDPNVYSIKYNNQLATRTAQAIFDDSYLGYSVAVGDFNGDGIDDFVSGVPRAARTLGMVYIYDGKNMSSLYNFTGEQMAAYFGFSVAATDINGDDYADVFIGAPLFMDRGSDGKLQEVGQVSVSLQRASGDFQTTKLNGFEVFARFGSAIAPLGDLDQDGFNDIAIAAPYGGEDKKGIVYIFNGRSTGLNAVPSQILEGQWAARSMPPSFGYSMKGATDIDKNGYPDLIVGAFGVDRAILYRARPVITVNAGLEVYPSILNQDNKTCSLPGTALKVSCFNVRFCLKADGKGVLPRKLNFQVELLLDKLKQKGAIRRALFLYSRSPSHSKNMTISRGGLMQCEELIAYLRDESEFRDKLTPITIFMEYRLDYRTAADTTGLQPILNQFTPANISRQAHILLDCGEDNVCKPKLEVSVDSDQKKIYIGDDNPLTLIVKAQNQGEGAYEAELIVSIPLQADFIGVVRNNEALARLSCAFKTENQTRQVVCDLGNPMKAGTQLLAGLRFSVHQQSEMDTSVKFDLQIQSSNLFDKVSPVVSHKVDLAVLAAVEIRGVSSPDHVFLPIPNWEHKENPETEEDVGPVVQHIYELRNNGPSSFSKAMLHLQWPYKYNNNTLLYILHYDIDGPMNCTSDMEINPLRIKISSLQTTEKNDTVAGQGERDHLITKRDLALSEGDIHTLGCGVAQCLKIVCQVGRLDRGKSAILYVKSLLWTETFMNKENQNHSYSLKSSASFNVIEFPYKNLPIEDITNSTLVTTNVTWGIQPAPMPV
T2 sequence (P05106 27-718 limits assumed): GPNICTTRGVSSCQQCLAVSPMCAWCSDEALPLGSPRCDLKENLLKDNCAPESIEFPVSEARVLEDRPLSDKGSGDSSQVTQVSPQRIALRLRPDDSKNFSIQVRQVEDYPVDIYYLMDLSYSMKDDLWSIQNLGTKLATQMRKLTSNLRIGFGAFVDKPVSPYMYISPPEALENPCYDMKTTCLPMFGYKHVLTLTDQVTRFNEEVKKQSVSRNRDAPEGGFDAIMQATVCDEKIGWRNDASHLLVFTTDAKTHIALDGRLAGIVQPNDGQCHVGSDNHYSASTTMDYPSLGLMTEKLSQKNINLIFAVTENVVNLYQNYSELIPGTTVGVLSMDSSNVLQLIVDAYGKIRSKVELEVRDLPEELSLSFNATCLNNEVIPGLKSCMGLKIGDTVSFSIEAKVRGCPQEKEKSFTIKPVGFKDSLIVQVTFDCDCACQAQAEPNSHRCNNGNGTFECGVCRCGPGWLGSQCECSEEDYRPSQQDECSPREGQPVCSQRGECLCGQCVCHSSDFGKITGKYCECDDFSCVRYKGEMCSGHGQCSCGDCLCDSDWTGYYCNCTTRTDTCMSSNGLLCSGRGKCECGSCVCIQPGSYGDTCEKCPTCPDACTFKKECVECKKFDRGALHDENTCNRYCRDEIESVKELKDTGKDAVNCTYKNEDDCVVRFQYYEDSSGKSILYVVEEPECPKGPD
αVβ3 integrin, sequence (P06756 31-992 limits assumed): as the sequence (P06756 31-992 limits assumed) above
αVβ3 integrin, sequence (P05106 27-718 limits assumed): as the sequence (P05106 27-718 limits assumed) above

Substance	frequency of large current events, α4β1 (α4β1; Modification Tip + Substrate)	frequency of large current events, α4β1 (α4β1; Modification Tip only)	binding process (αVβ3 integrin)	Ratio (selectivity αvβ3 vs α4β1) (αvβ3; Modification Tip + Substrate)	frequency of large current events, αvβ3 (αvβ3; Modification Tip + Substrate)	Ratio (selectivity αvβ3 vs α4β1) (αvβ3; Modification Tip only)	frequency of large current events, αvβ3 (αvβ3; Modification Tip only)
cyclo(RGD[dF]C) [RGD]	0.19	0.21	almost irreversible	3.1	0.57	2.6	0.55
cyclo(RGE[dF]C) [RGE]	0.25	0.28	–	1.2	0.31	1.3	0.36
